Values quoted from earlier work, collected in patent publication US20070281007A1, “Mucoadhesive Oral Formulations of High Permeability, High Solubility Drugs” (priority 2004, published 2007).
Like-named read-outs stand apart in the source and are kept apart here.

| SMILES | bioavailability (at best, 900 mg dose, given three times a day) [%] | bioavailability (in vivo) [%] |
| --- | --- | --- |
| NCC1(CC(=O)O)CCCCC1 [gabapentin] | 60 | – |
| CC(C)[C@H](N)C(=O)OCCOCn1cnc2c(=O)[nH]c(N)nc21 [valacyclovir] | – | ~50 |
